One data set concerns TC-32. In words: Cell viability assay (MTT), 72 h. The class given is cell-based. The note with it: TC-32 cells.
Data set [1] deals with osteosarcoma. Also on record: method as in PMID 24961790, PMID 24333720. The note with it: cited from earlier work.
Data set [2] relates to osteosarcoma. The note with it: cited from earlier work.
A further data set deals with A4573. In words: Cell viability assay (MTT), 72 h. The note with it: A4573 (ES), read-out: GDC-0941 cell viability IC50. It is filed as cell-based.
A further data set deals with RD. Briefly: Cell viability assay (MTT), 72 h. The note with it: Homo sapiens, RD (RMS), read-out: GDC-0941 cell viability IC50. The class given is cell-based.
A further data set relates to A204. In words: Cell viability assay (MTT), 72 h. The settings on record: Homo sapiens, A204 (RMS), read-out: GDC-0941 cell viability IC50. It is filed as cell-based.
For another data set, the system named is TC-174. Briefly: Cell viability assay (MTT), 72 h. It is filed as cell-based. The settings on record: TC-174 (ES), read-out: GDC-0941 cell viability IC50.
For a further data set, the system named is KHOS. In words: Cell viability assay (MTT), 72 h. It is filed as cell-based. The note with it: KHOS (OS), read-out: GDC-0941 cell viability IC50.
The next data set relates to SJSA. Briefly: Cell viability assay (MTT), 72 h. It is filed as cell-based. The settings on record: SJSA (OS), read-out: GDC-0941 cell viability IC50.
A further data set relates to HOS. Briefly: Cell viability assay (MTT), 72 h. The class given is cell-based. The settings on record: Homo sapiens, HOS (OS), read-out: GDC-0941 cell viability IC50.
Data set [3] deals with pediatric tumor cell lines. The arrangement: method as in PMID 23002019. The settings on record: panel of pediatric tumor cell lines, including sarcomas; read-out: median relative IC50; cited from earlier work.
For data set [4], the system named is bone and soft-tissue sarcomas. Also on record: method as in PMID 23477833. The settings on record: combination with the mTOR inhibitor temsirolimus; phase II; patients with bone and soft-tissue sarcomas; cited from earlier work.
The subject of data set [5] is chronic lymphocytic leukemia. The note with it: cited from earlier work.

Like-named read-outs stand apart in the source and are kept apart here.

By IC50 is commonly meant the point on the concentration scale where inhibition reaches its midpoint.

Take `CC(=O)Nc1cccc(-n2c(=O)n(C3CC3)c(=O)c3c(Nc4ccc(I)cc4F)n(C)c(=O)c(C)c32)c1` [tramenitib, trametinib]: the “cytotoxicity as single agent” value with TC-32 was “no tramenitib cytotoxicity was observed”.
With `Cn1c(=O)n(-c2ccc(C(C)(C)C#N)cc2)c2c3cc(-c4cnc5ccccc5c4)ccc3ncc21` [NVP-BEZ235], in the data set with osteosarcoma [1], the “in vitro cellular proliferation” value is reported as “inhibited”. Moreover, in the data set with osteosarcoma [2], the “tumor growth in vivo” value is on record as “inhibited”.
In the case of `CS(=O)(=O)N1CCN(Cc2cc3nc(-c4cccc5[nH]ncc45)nc(N4CCOCC4)c3s2)CC1` [GDC-0941, pictilisib], the IC50 in the data set with A4573 came out at 376 nM; with RD, 278 nM; with A204, 27.1 nM; in the data set with TC-174 it was 170 nM; in the data set on KHOS, 1200 nM; in the data set on SJSA it was 297 nM. The half-maximal inhibitory concentration (IC50) in the data set with HOS came to 161 nM.
On to `COc1ccc(Cl)c(Nc2nc3ccccc3nc2NS(=O)(=O)c2cccc(NC(=O)C(C)(C)N)c2)c1` [SAR245408], for which, in [3], the 50% inhibitory concentration (IC50) is 10900 nM.
`Cc1nc(NC(=O)N2CCC[C@H]2C(N)=O)sc1-c1ccnc(C(C)(C)C(F)(F)F)c1` [NVP-BYL719]: the “in vitro cellular proliferation” value with osteosarcoma [1] is listed as “inhibited”. Besides, in the data set with osteosarcoma [2], the “tumor growth in vivo” value was “inhibited”. Moreover, the tumor growth entry in the data set with osteosarcoma [2] (combined with the chemotherapeutic agent ifosfamide) is listed as “synergistically inhibited tumor growth”.
Consider “cixutmumuab: IGF1R antibody, evaluated in combination with the mTOR inhibitor temsirolimus”, for which, in data set [4], the response rate is recorded as 15%.
`CC[C@H](Nc1ncnc2[nH]cnc12)c1nc2cccc(F)c2c(=O)n1-c1ccccc1` [idelalisib]: the overall response rate in data set [5] (combined with rituximab) is listed as 81%; in data set [5] (single agent) it was 72%.

The values are drawn from PMC4581723, “Evaluation of In Vitro Activity of the Class I PI3K Inhibitor Buparlisib (BKM120) in Pediatric Bone and Soft Tissue Sarcomas” (PLoS ONE, 2015).
